# According to paper PMC7835349 (Communications Biology, 2021):
# Values joined by “and” are separate entries in the source; they are usually repeats but may differ in a detail not shown here. Equal entries are not always repeated.
# System: RS4;11 xenograft
# Experiment: RS4;11 mouse xenograft efficacy (tumour volume)
# Format: in vivo, C.B-17 SCID mouse
# Design: key to tumour volume, individual animals: tumour volume in mm³, length × width²/0.52
# Settings: for tumour volume, individual animals: 20 mg/kg AZD4320
# Description: Female C.B.−17 SCID mice were purchased from Charles River Laboratories. Mice were 5–8 weeks old at the time of tumour implantation. All xenograft studies were conducted at our Association for the Assessment and Accreditation of Laboratory Animal Care accredited facility in Waltham, MA in accordance with ethical regulations described in the guidelines established by the internal Institutional Animal Care and Use Committee. The dendrimer conjugates were formulated in citrate/phosphate buffer pH 5.0, diluted 1:10 with 5% glucose containing 1% w/v Kolliphor HS15, and AZD4320 was formulated in 30% HP-β-CD and dosed as a weekly intravenous (IV) administration at a volume of 5 ml/kg at the indicated doses. Five million RS4;11, five million SUDHL-4 or five million OCI-LY-10 cells were injected subcutaneously in the right flank of mice in a volume of 0.1 ml. Tumour volumes (measured by caliper), animal body weight, and tumor condition were recorded twice weekly for the duration of the study. The tumour volume was calculated (taking length to be the longest diameter across the tumour and width to be the corresponding perpendicular diameter) using the formula: length (mm) x width (mm)^2/0.52. For efficacy studies, mice were randomized based on tumour volumes using stratified sampling and enrolled into control and treatment groups. Tumour growth inhibition from the start of treatment was quantified by measuring the difference in tumour volume between control and treated groups. Survival analysis was evaluated using Mantel-Cox test. Tumours were also taken for bioanalysis.
substance,measurement,setting,value
AZD4320-MIDA-PEG2100 [AZD0466],"tumour volume, individual animals","Day 38, listed as SPL-8977, 20 mg/kg, in mm³ (unit assumed)",600 and 609 and 679 and 641
same,"tumour volume, individual animals","Day 41, listed as SPL-8977, 20 mg/kg, in mm³ (unit assumed)",419 and 480 and 364 and 544
same,"tumour volume, individual animals","Day 45, listed as SPL-8977, 20 mg/kg",0 (2×) and 133 and 130
same,"tumour volume, individual animals","Day 48, listed as SPL-8977, 20 mg/kg",0 (3×) and 75
same,"tumour volume, individual animals","Day 52, listed as SPL-8977, 20 mg/kg",0 (3×) and 134
same,"tumour volume, individual animals","Day 55, in mm³ (unit assumed)",0
same,"tumour volume, individual animals","Day 59, listed as SPL-8977, 20 mg/kg",0 (2×) and 122 and 66
same,"tumour volume, individual animals","Day 63, listed as SPL-8977, 20 mg/kg, in mm³ (unit assumed)",275 and 244 and 0 and 343
same,"tumour volume, individual animals","Day 66, listed as SPL-8977, 20 mg/kg, in mm³ (unit assumed)",255 and 188 and 196 and 333
same,"tumour volume, individual animals","Day 69, listed as SPL-8977, 20 mg/kg, in mm³ (unit assumed)",384 and 259 and 193 and 637
same,"tumour volume, individual animals","Day 73, listed as SPL-8977, 20 mg/kg, in mm³ (unit assumed)",574 and 450 and 240 and 837
same,AZD4320-equivalent dose of dendrimer conjugate needed to match efficacy of AZD4320,RS4;11,approximately twice the dose
same,magnitude of in vivo efficacy,"RS4;11, 20 mg/kg AZD4320 equivalent dose vs SPL-8932 20 mg/kg equivalent and AZD4320 10 mg/kg",comparable to that of SPL-8932 and AZD4320
same,"Tumour volume, Geo Mean","RS4;11, AZD0466 10 mg/kg (3mg/kg AZD4320), day 41",492.913
same,"Tumour volume, Geo Mean","RS4;11, AZD0466 10 mg/kg (3mg/kg AZD4320), day 44",317.328
same,"Tumour volume, Geo Mean","RS4;11, AZD0466 10 mg/kg (3mg/kg AZD4320), day 48",5.078
same,"Tumour volume, Geo Mean","RS4;11, AZD0466 10 mg/kg (3mg/kg AZD4320), day 51",2.414
same,"Tumour volume, Geo Mean","RS4;11, AZD0466 10 mg/kg (3mg/kg AZD4320), day 55",1
same,"Tumour volume, Geo Mean","RS4;11, AZD0466 10 mg/kg (3mg/kg AZD4320), day 58",49.5834
same,"Tumour volume, Geo Mean","RS4;11, AZD0466 10 mg/kg (3mg/kg AZD4320), day 63",177.592
same,"Tumour volume, Geo Mean","RS4;11, AZD0466 10 mg/kg (3mg/kg AZD4320), day 66",258.58
same,"Tumour volume, Geo Mean","RS4;11, AZD0466 10 mg/kg (3mg/kg AZD4320), day 70",353.377
same,"Tumour volume, Geo Mean","RS4;11, AZD0466 10 mg/kg (3mg/kg AZD4320), day 73",450.085
same,"Tumour volume, Geo Mean","RS4;11, AZD0466 10 mg/kg (3mg/kg AZD4320), day 77",770.449
same,"Tumour volume, Geo Mean","RS4;11, AZD0466 10 mg/kg (3mg/kg AZD4320), day 80",703.796
same,"Tumour volume, Geo Mean","RS4;11, AZD0466 10 mg/kg (3mg/kg AZD4320), day 83",919.497
same,"Tumour volume, Geo Mean","RS4;11, AZD0466 34 mg/kg (10mg/kg AZD4320), day 41",491.258
same,"Tumour volume, Geo Mean","RS4;11, AZD0466 34 mg/kg (10mg/kg AZD4320), day 44",242.554
same,"Tumour volume, Geo Mean","RS4;11, AZD0466 34 mg/kg (10mg/kg AZD4320), day 48",1.95
same,"Tumour volume, Geo Mean","RS4;11, AZD0466 34 mg/kg (10mg/kg AZD4320), day 51",1
same,"Tumour volume, Geo Mean","RS4;11, AZD0466 34 mg/kg (10mg/kg AZD4320), day 55",1
same,"Tumour volume, Geo Mean","RS4;11, AZD0466 34 mg/kg (10mg/kg AZD4320), day 58",1
same,"Tumour volume, Geo Mean","RS4;11, AZD0466 34 mg/kg (10mg/kg AZD4320), day 63",24.9155
same,"Tumour volume, Geo Mean","RS4;11, AZD0466 34 mg/kg (10mg/kg AZD4320), day 66",88.4785
same,"Tumour volume, Geo Mean","RS4;11, AZD0466 34 mg/kg (10mg/kg AZD4320), day 70",55.1235
same,"Tumour volume, Geo Mean","RS4;11, AZD0466 34 mg/kg (10mg/kg AZD4320), day 73",52.3606
same,"Tumour volume, Geo Mean","RS4;11, AZD0466 34 mg/kg (10mg/kg AZD4320), day 77",71.4432
same,"Tumour volume, Geo Mean","RS4;11, AZD0466 34 mg/kg (10mg/kg AZD4320), day 80",194.327
same,"Tumour volume, Geo Mean","RS4;11, AZD0466 34 mg/kg (10mg/kg AZD4320), day 83",206.49
same,"Tumour volume, Geo Mean","RS4;11, AZD0466 103 mg/kg (30mg/kg AZD4320), day 41",495.68
same,"Tumour volume, Geo Mean","RS4;11, AZD0466 103 mg/kg (30mg/kg AZD4320), day 44",271.066
same,"Tumour volume, Geo Mean","RS4;11, AZD0466 103 mg/kg (30mg/kg AZD4320), day 48",1.967
same,"Tumour volume, Geo Mean","RS4;11, AZD0466 103 mg/kg (30mg/kg AZD4320), day 51",1
same,"Tumour volume, Geo Mean","RS4;11, AZD0466 103 mg/kg (30mg/kg AZD4320), day 55",1
same,"Tumour volume, Geo Mean","RS4;11, AZD0466 103 mg/kg (30mg/kg AZD4320), day 58",1
same,"Tumour volume, Geo Mean","RS4;11, AZD0466 103 mg/kg (30mg/kg AZD4320), day 63",5.6048
same,"Tumour volume, Geo Mean","RS4;11, AZD0466 103 mg/kg (30mg/kg AZD4320), day 66",13.7221
same,"Tumour volume, Geo Mean","RS4;11, AZD0466 103 mg/kg (30mg/kg AZD4320), day 70",40.3244
same,"Tumour volume, Geo Mean","RS4;11, AZD0466 103 mg/kg (30mg/kg AZD4320), day 73",44.9682
same,"Tumour volume, Geo Mean","RS4;11, AZD0466 103 mg/kg (30mg/kg AZD4320), day 77",64.9706
same,"Tumour volume, Geo Mean","RS4;11, AZD0466 103 mg/kg (30mg/kg AZD4320), day 80",64.3873
same,"Tumour volume, Geo Mean","RS4;11, AZD0466 103 mg/kg (30mg/kg AZD4320), day 83",200.25
same,animals remaining tumour free for up to 6 weeks,"RS4;11, highest dose (30 mg/kg AZD4320-equivalent)",2/6
same,regression during treatment period,"RS4;11, weekly IV, 10 mg/kg and 30 mg/kg AZD4320-equivalent",Complete tumour regression
same,tumour regression,"RS4;11, weekly IV, 3, 10 and 30 mg/kg AZD4320-equivalent dose, each dose group",tumour regression in all 6 mice
